Values quoted from earlier work as cited in US10219515B2, “Agrochemical adjuvant containing 2-oxo-1,3-dioxolan-4 carboxylates” (BASF SE, priority 2014, dated 2019).
Like-named read-outs stand apart in the source and are kept apart here.

Structure (SMILES): O=C(O)CNCP(=O)(O)O [glyphosate]
- acid dissociation constant pKa (amine): ~11.0
- acid dissociation constant pKa (carboxylic acid): ~2.3
- acid dissociation constant pKa (first phosphonic acid): ~0.8
- acid dissociation constant pKa (second phosphonic acid): ~6.0
